From PMC11009412, “Pathogenic mutations of human phosphorylation sites affect protein–protein interactions” (Nature Communications, 2024) come the findings set out here.

What is called Kd is the concentration at which binding is half-saturated.

One assay deals with GRB2. The assay is described as follows: PRISMA peptide pull-down screen, GRB2 binding to the EGFR control peptide. Also on record: species or system human. The following applies: PRISMA pull-down from SILAC-labelled HEK-293 lysate; in all three replicates. An excerpt: (§1) A total of 117 peptides, consisting of 15 amino acids each, were synthesized in situ on a cellulose membrane using SPOT synthesis techniques[25] provided by JPT Peptide Technologies in Berlin, Germany. Among these peptides, 39 were wild-type non-phosphorylated, 39 were mutated, and 39 were phosphorylated. Whenever possible, the mutation site was positioned at position 7, which is in the center of the immobilized peptides, with their C-termini serving as the point of immobilization.
(§2) For the experimental procedure, three membranes were initially incubated with the lysis buffer (HEPES (50 mM, pH 7.9), NaCl (150 mM), EGTA (1 mM), MgCl2 (1 mM), glycerol (20%), NP-40 (1%), SDS (0.1%), and sodium deoxycholate (0.5%)). The membranes were incubated with the lysis buffer until completely moistened. […]
(§3) HEK-293 cells were lysed with the lysis buffer and the protein concentration was measured using DC protein assay (Bio-Rad). […]
(§4) During the analysis, peptides were eluted from the analytical column at a flow rate of 500 nl/min, employing a gradient as follows: 5 to 10% B over 5 min, 10 to 40% B over 60 min, 40 to 99% B over 5 min, and maintaining 99% B for 5 min. The samples were measured in the orbitrap fusion mass spectrometer using the following methods: a full scan was performed with a resolution of 120,000 over an m/z range of 300–1500. […]

For a further assay, the target named is T1, 14-3-3 epsilon (YWHAE) (Homo sapiens, UniProt P62258).
T1 construct: residues 1 and 236-255 are disordered and therefore not visible in the electron density; GST (N, cleaved yes); made in house; host or cells: Escherichia coli C41 (DE3)
T1 sequence (P62258 1-255): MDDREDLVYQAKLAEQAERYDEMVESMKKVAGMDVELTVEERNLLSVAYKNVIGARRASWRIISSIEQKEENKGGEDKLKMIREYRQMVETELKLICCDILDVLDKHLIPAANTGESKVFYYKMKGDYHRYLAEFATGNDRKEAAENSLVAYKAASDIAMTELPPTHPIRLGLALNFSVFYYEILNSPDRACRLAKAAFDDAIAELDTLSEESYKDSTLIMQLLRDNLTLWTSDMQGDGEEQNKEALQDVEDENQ
The assay is described as follows: Isothermal titration calorimetry (ITC) of GATAD1 peptides with 14-3-3ε. The following applies: 18 °C, 400 µM peptide in syringe, 25 µM 14-3-3ε in chamber, 20 mM HEPES pH 7.0, 150 mM NaCl, 2 mM DTT. It is filed as binding. As for the experimental part: The 14-3-3ε (YWHAE) cDNA was purchased from Twist Bioscience in the pTwist Chlor High Copy vector and cloned into the pGEX6P1 plasmid (GE Healthcare) for recombinant expression as a GST-fusion protein followed by a Prescission protease cleavage site. The plasmid was freshly transformed into Escherichia coli C41 (DE3) cells. Cultures were grown in terrific broth supplemented with ampicillin (100 μg/ml) at 37 °C and 80 rpm until an optical density at 600 nm of 0.7 was reached. […] Cells were harvested by centrifugation at 4000 g and frozen at −20 °C.
Following resuspension in lysis buffer (50 mM HEPES/NaOH pH 7.5, 500 mM NaCl and 3 mM Dithiothreitol (DTT)) supplemented with 1 mg deoxyribonuclease I (DNaseI, Roche) and protease inhibitor 4-(2-Aminoethyl) benzenesulfonyl fluoride hydrochloride S7(AEBSF), cells were disrupted using a microfluidizer (Microfluidics). The cell extract was centrifuged at 55,000 g for 45 min at 4 °C to remove insoluble parts. The cleared supernatant was applied onto a prepacked Glutathione Sepharose 4B column (Cytiva) equilibrated in the lysis buffer. The column was extensively washed with lysis buffer. To cleave off the GST tag, 1 mg PreScission protease was diluted in 5 ml OCC buffer (50 mM HEPES/NaOH pH 7.5, 150 mM NaCl, and 3 mM DTT), applied to the column material, and incubated overnight at 4 °C. Cleaved 14-3-3ε protein was eluted from the column using OCC buffer, concentrated and loaded onto an 16/60 S200 column (Cytiva) equilibrated in SEC buffer (20 mM HEPES/NaOH pH 7.5, 150 mM NaCl and 2 mM DTT). Pure and homogenous 14-3-3ε was concentrated to 13 mg/ml, flash-frozen in liquid nitrogen, and stored at −80 °C until further use.
GATAD1 peptides used in these experiments were obtained from JPT peptide technologies with an N-terminus in amine and a C-terminus in amide form with 95% purity. ITC experiments were performed using a PEAQ-ITC microcalorimeter (Malvern). All titrations were performed at 18 °C with 400 µM peptide in the syringe and 25 µM 14-3-3ε in the reaction chamber. The protein and the titration components were dissolved in a buffer containing 20 mM HEPES pH 7.0, 150 mM NaCl, and 2 mM DTT. Malvern software was used for data visualization and fitting. The raw ITC results can be found in Supplementary Fig. 42.
A general note: Isothermal titration calorimetry measures the heat released or taken up as one component is titrated into another.

In the next assay the test system is 14-3-3 family proteins. The assay is described as follows: PRISMA peptide pull-down screen, 14-3-3 binding to GATAD1 peptides. The following applies: LFQ volcano plot and SILAC scatter plot; HEK-293 lysate, triplicates. Also on record: species or system human.
From the text: as §1, §2, §3, §4

For assay [1], the system named is 14-3-3 proteins (beta/alpha, gamma, epsilon, zeta, eta and theta). Briefly: Alanine scanning PRISMA pull-down, 14-3-3 proteins. It is filed as binding, human. The following applies: PRISMA pull-down from HEK-293T lysate, LFQ, triplicates.
From the text: In this experiment, each amino acid from the −5 to +5 positions surrounding the phosphorylated residue was mutated to alanine, except for original alanine residues which were mutated to glycine. The experiment also included the wild-type phosphorylated, wild-type non-phosphorylated, disease-associated mutant, and aspartic acid mutant peptides. These 15 peptides were synthesized on a cellulose membrane in triplicates (n = 3 biological replicates) to facilitate the pull-down of proteins from HEK-293T cell lysate. The synthesis of peptides, pull-downs, and sample preparation for mass spectrometry followed the procedures described earlier for the PRISMA screen. Subsequently, samples were eluted from StageTips using a solution containing 50% acetonitrile and 0.1% formic acid, dried, and resuspended in a solution containing 3% acetonitrile and 0.1% formic acid. […]
The acquired mass spectra were subjected to further analysis using MaxQuant (version 1.6.3.4). […] The LFQ values of significant proteins were z-scored by row and hierarchical clustering was performed (Fig. 6A and Supplementary Data 5). To better visualize the 14-3-3 proteins, their LFQ values were extracted from the whole table and were z scored and clustered individually (Fig. 5C).

“And” between values parts separate entries of the source, which are not always exact repeats. Equal entries are not always repeated. Non-standard residues stand in square brackets, D forms with d. Residues, ends and D or L forms follow the SMILES beside them. pS = N[C@@H](COP(=O)(O)O)C(=O)O

Turning to “TFLPVPEpYINQSVPK [EGFR_phos, positive control, well-characterized EGFR-derived phosphopeptide]”, in the assay on GRB2, the “SILAC ratio phos/mut of GRB2” value is listed as more than 20 and the “SILAC ratio phos/wt of GRB2” value is on record as more than 20.
As to `CC(C)C[C@H](N)C(=O)N[C@@H](CCCNC(=N)N)C(=O)N[C@@H](CC(N)=O)C(=O)N[C@H](C(=O)N[C@@H](CCCCN)C(=O)N[C@@H](Cc1ccc(O)cc1)C(=O)N[C@@H](CCCCN)C(=O)N[C@@H](COP(=O)(O)O)C(=O)N[C@@H](C)C(=O)N1CCC[C@H]1C(=O)N[C@@H](C)C(=O)N[C@@H](C)C(=O)N[C@@H](CCC(=O)O)C(=O)N[C@@H](CCCCN)C(=O)N[C@@H](CCCCN)C(N)=O)[C@@H](C)O` [GATAD1_phos] (H-LRNTKYK[pS]APAAEKK-NH2), the “N (stoichiometry) by ITC” value at 14-3-3 epsilon (YWHAE) is listed as 1.42 ± 0.04. The Kd at 14-3-3 epsilon (YWHAE) (PEAQ-ITC, peptides N-terminal amine, C-terminal amide, read-out: Kd (binding constant) by ITC) was ~3 µM and 3.4 µM. For the same molecule, the “Specific and differential binding of 14-3-3 proteins in PRISMA (in words)” value in the assay with 14-3-3 family proteins was “specifically interacts with the multiple 14-3-3 protein family members”.
As to “LRNTKYKDAPAAEKK [S102D, phosphomimetic S102D mutant GATAD1 peptide]”, the “Interaction with 14-3-3ε by ITC (in words)” value at 14-3-3 epsilon (YWHAE) was “do not interact”. Further, the “14-3-3 proteins pulled down in alanine scanning (in words)” value in assay [1] is “did not interact”.
